Data taken from patent US20230272077A1, “PD-1 SIGNAL INHIBITOR COMBINATION THERAPY” (KYOTO UNIVERSITY, priority 2015, published 2023).
Entries after “also recorded” stand apart in the source; their conditions may differ.

Assays:
MC38 = test: Mouse therapy model, MC38-bearing mice (tumor volume, survival); format: in vivo; settings: MC38-bearing mice
Protocol: MC38 (5×10^5) and MethA (5×10^5) cells were intradermally injected on the right flank. MC38 was inoculated into C57BL/6 mice and MethA was inoculated into BALB/c mice. For monotherapy, mice were intraperitoneally injected with 150 μg of PD-L1 mouse antibody (1-111A) (prepared by the laboratory of the present inventors) 5 days after the tumor inoculation. Therapy with PD-L1 antibody alone was repeated three times every 5 days. For combination therapy, administration of PD-L1 antibody and chemical agents started 7 days after tumor injection. Chemical agents were injected at a regular interval of 2 days and PD-L1 antibody at a regular interval of 5 days (shown in FIG. 3b). Tumors were measured on every alternate day, and tumor volumes were calculated using the formula for typical ellipsoid, π×(length×breadth×height/6).
The following chemical reagents were used at the indicated concentrations for combination therapy. AMPK activator: A769662, 6 mg/kg (Abcam); mTOR activator: MHY1485, 3 μg/kg (Sigma-Aldrich); uncoupler: carbonylcyanide-p-trifluoromethoxyphenylhydrazone (FCCP), 1.2 mg/kg (Abcam); uncoupler: 2,4-Dinitrophenol (DNP), 1.7 mg/kg (Aldrich); SIRT1 activator: resveratrol, 0.5 mg/kg (Abcam); ROS scavenger: Mn (III) tetrakis (4-benzoic acid) porphyrin (MnTBAP), 1.25 mg/kg (Calbiochem); ROS generator: tert-butyl hydroperoxide solution (Luperox TBH70X), 200 μL/kg (Sigma-Aldrich); ATP synthase inhibitor: oligomycin, 250 μg/kg (Sigma-Aldrich); paraquat 2 mg/kg (Nakalai Tesque); oltipraz 1.9 mg/kg (Sigma); bezafibrate 1 mg/kg (ChemCruz).
All reagents were freshly prepared just before use. Each reagent was dissolved in the solvent indicated in the instructions. Note that the AMPK activator, mTOR activator, uncouplers and SIRT1 activator were prepared from fresh unused vials in each series of experiments. Dissolved reagents were diluted in PBS, and a 200 l aliquot was injected per mouse.
(§1) Murine colon adenocarcinoma MC38 cells (5×10^5) were inoculated into C57BL/6 mice. After 7 days, anti-PD-L1 antibody (1-111A, 150 μg) and AMPK inhibitor (Compound C: 200 μg in BBS, 200 μL) were administered intraperitoneally. Anti-PD-L1 antibody was administered 3 times at a regular interval of 6 days; Compound C (C.C) was administered 7 times at a regular interval 2 days.
MC38 cells (5×10^5) were inoculated into C57BL/6 mice. After 7 days, anti-PD-L1 antibody (1-111A, 150 μg) and PGC-1α/transcription factor complex activator (2-(4-{2-[(4-chlorobenzoyl)amino]ethyl}phenoxy)-2-methylpropanoic acid (bezafibrate): 10 ug in PBS, 200 ul) were administered intraperitoneally. Anti-PD-L1 antibody was administered 3 times at a regular interval of 6 days; bezafibrate was administered 7 times at a regular interval 2 days.

[1] = system: AMPK and its associated proteins ACC and SIRT1; test: Western blotting of DLN CD8+ T cells, AMPK pathway; format: in vivo, mouse; settings: CD8+ T cells from mice treated with PD-L1 antibody and reagent
Protocol: (§2) FIG. 7. […] Phosphorylation of AMPK, ACC, mTOR and S6K and the expression of SIRT1 and 4EBP1 were analyzed by Western blotting. b) MC38-bearing mice were treated with PD-L1 antibody in combination with AMPK activator (A769662) and/or mTOR activator (MHY1485) according to the same schedule as shown in FIG. 3b.
(§3) CD8^+ T cells were isolated using mouse CD8 Microbeads (Miltenyi Biotec). After washing with PBS twice, 2×10^6 cells were solubilized in a lysis buffer containing 30 mM Tris-HCl (pH.7.4), 150 mM NaCl, 10% glycerol, 0.1% SDS, 1% Triton-X-100, 0.05% Na-Doc, 5 mM EDTA (pH.8.0), protease inhibitor mixture (Roche Molecular Biochemicals) and phosphatase inhibitors (Nacalai Tesque). After measurement of protein concentrations by DC protein assay (Bio-Rad), 4 μg of proteins was mounted on 4 to 20% gradient Mini-PROTEAN TGX Gels (Bio-Rad) and electroblotted onto nitrocellulose membranes, which were then incubated in a blocking buffer of TBS containing 1% BSA. Primary antibody incubations were carried out overnight at 4° C. in blocking buffer. After washing, secondary antibody incubations were carried out at room temperature for 40 min in blocking buffer. Blots were developed with enhanced chemiluminescence (Amersham Pharmacia). […]

[2] = system: mTOR and its associated proteins S6K and 4EBP1; test: Western blotting of DLN CD8+ T cells, mTOR pathway; format: in vivo, mouse; settings: CD8+ T cells from mice treated with PD-L1 antibody and reagent
Protocol: as §2, §3

[3] = used in 1930's; cited from earlier work
RENCA = test: RENCA-bearing BALB/c mice (tumor volume); format: in vivo, mouse; settings: RENCA in BALB/c mice, combined with anti-PD-L1 antibody
Protocol: as §1, with “renal cell carcinoma RENCA” for “colon adenocarcinoma MC38”, “(2×10^6)” for “(5×10^5)”, “BALB/c” for “C57BL/6”, “l)” for “μL)”, “days. Tumor volumes (mm^3) from day 0 to day 25 of RENCA inoculation are shown.” for “days.”

[4] = reagent combined with PD-L1 antibody vs PD-L1 antibody alone

Row | Structure (SMILES) | antitumor activity of triple combination of PD-L1 antibody, DNP and Luperox (MC38; DNP and Luperox both with PD-L1 antibody) | antitumor effect when administered alone (MC38; reagent alone, no PD-L1 antibody, tumor volume) | enhancement of antitumor effect of PD-L1 antibody (tumor volume) (MC38; [4]) | survival rate (MC38; [4]) | activation of AMPK and its associated proteins ACC and SIRT1 [1] | activation of mTOR and its associated proteins S6K and 4EBP1 [2] | health problems in use as diet supplement [3] | enhancement of antitumor effect of PD-L1 antibody (tumor volume) (MC38; reagent combined with PD-L1 antibody vs PD-L1 antibody alone, listed as compound C) | enhancement of efficacy of anti-PD-L1 antibody therapy (tumor volume) (RENCA) | enhancement of efficacy of anti-PD-L1 antibody therapy (tumor volume) (RENCA; listed as compound C)
1 | O=[N+]([O-])c1ccc(O)c([N+](=O)[O-])c1 [DNP, 2,4-dinitrophenol] | stronger antitumor activity; also recorded: Antitumor effect is enhanced | failed to exhibit any antitumor effect | augmented the efficacy of PD-L1 antibody therapy; also recorded: enhance the antitumor effect of PD-L1 antibody | remarkably improved the survival rate | activated | also found to be activated | caused severe health problems | – | – | –
2 | c1cc(-c2cnn3cc(-c4ccc(OCCN5CCCCC5)cc4)cnc23)ccn1 [AMPK inhibitor, 6-[4-[2-(1-Piperidinyl)ethoxy]phenyl]-3-(4-pyridinyl)pyrazolo[1,5-a]pyrimidine] | – | – | enhances the efficacy of anti-PD-L1 antibody therapy | – | – | – | – | Synergistic effect | enhances the efficacy of anti-PD-L1 antibody therapy | Synergistic effect
